Measurements from patent publication US20120029187A1, “HALOALKYLSULFONANILIDE DERIVATIVE” (Nissan Chemical Industries, Ltd., priority 2009, published 2012).

Legend:
Type in all cases: in vivo
barnyardgrass [1] = test: Test Example 4: herbicidal effect in foliage treatment; conditions: dose 3.2 g/a, three weeks after application
Summary of the method: (§1)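 14-day greenhouse-grown plants (25–30° C) sprayed on foliage with diluted EC; dose as g/a; effect graded after 3 weeks.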

redroot pigweed [2] = test: as above; conditions: dose 3.2 g/a, three weeks after application
Summary of the method: as §1

common chickweed [3] = test: as above; conditions: dose 3.2 g/a, three weeks after application
Summary of the method: as §1

giant foxtail [4] = test: as above; conditions: dose 3.2 g/a, three weeks after application
Summary of the method: as §1

large crabgrass [5] = test: as above; conditions: dose 3.2 g/a, three weeks after application
Summary of the method: as §1

water foxtail [6] = test: as above; conditions: dose 3.2 g/a, three weeks after application
Summary of the method: as §1

velvetleaf [7] = test: as above; conditions: dose 3.2 g/a, three weeks after application
Summary of the method: as §1

beadstraw [8] = test: as above; conditions: dose 3.2 g/a, three weeks after application
Summary of the method: as §1

common lambsquater [9] = test: as above; conditions: dose 3.2 g/a, three weeks after application
Summary of the method: as §1

wild oat [10] = test: as above; conditions: dose 3.2 g/a, three weeks after application
Summary of the method: as §1

Italian ryegrass [11] = test: as above; conditions: dose 3.2 g/a, three weeks after application
Summary of the method: as §1

common ragweed [12] = test: as above; conditions: dose 3.2 g/a, three weeks after application
Summary of the method: as §1

barnyardgrass [13] = test: Test Example 2: herbicidal effects during the vegetation period under submerged conditions; conditions: treatment during the vegetation period under submerged conditions; dose 2.52 g/a
Summary of the method: (§2)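 Barnyardgrass, bulrush and ducksalad were co-sown in alluvial soil flooded to 4 cm and grown in a greenhouse at 25 to 30° C. At the 1- or 2-leaf stage, water-diluted emulsifiable concentrates went onto the water surface at set doses (g/a). Herbicidal effect was scored three weeks later on a graded scale.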

bulrush [14] = test: as above; conditions: treatment during the vegetation period under submerged conditions; dose 2.52 g/a
Summary of the method: as §2

ducksalad [15] = test: as above; conditions: treatment during the vegetation period under submerged conditions; dose 2.52 g/a
Summary of the method: as §2

barnyardgrass [16] = test: Test Example 1: herbicidal effects in preemergence treatment under submerged conditions; conditions: dose 2.52 g/a
Summary of the method: (§3)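 Alluvial soil flooded to 4 cm depth; barnyardgrass, bulrush and ducksalad sown and 2.5-leaf rice seedlings transplanted. Same day, water-diluted emulsifiable concentrates applied to the water surface at set doses (g/a). Kept at 25–30 °C in greenhouse; effects scored 0–5 by mortality after three weeks.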

bulrush [17] = test: as above; conditions: dose 2.52 g/a
Summary of the method: as §3

ducksalad [18] = test: as above; conditions: dose 2.52 g/a
Summary of the method: as §3

barnyardgrass [19] = test: Test Example 3: herbicidal effects in soil treatment; conditions: dose 3.2 g/a
Summary of the method: (§4)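 Seeds were sown in sterilized diluvial soil and covered with about 1.5 cm of soil. Compounds, formulated as emulsifiable concentrates and diluted with water, were sprayed evenly over the soil surface at set doses in g/a. Herbicidal effect was scored on a rating scale three weeks later.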

redroot pigweed [20] = test: as above; conditions: dose 3.2 g/a
Summary of the method: as §4

posumbu knotweed [21] = test: as above; conditions: dose 3.2 g/a
Summary of the method: as §4

common chickweed [22] = test: as above; conditions: dose 3.2 g/a
Summary of the method: as §4

giant foxtail [23] = test: as above; conditions: dose 3.2 g/a
Summary of the method: as §4

large crabgrass [24] = test: as above; conditions: dose 3.2 g/a
Summary of the method: as §4

water foxtail [25] = test: as above; conditions: dose 3.2 g/a
Summary of the method: as §4

velvetleaf [26] = test: as above; conditions: dose 3.2 g/a
Summary of the method: as §4

beadstraw [27] = test: as above; conditions: dose 3.2 g/a
Summary of the method: as §4

common lambsquater [28] = test: as above; conditions: dose 3.2 g/a
Summary of the method: as §4

wild oat [29] = test: as above; conditions: dose 3.2 g/a
Summary of the method: as §4

Italian ryegrass [30] = test: as above; conditions: dose 3.2 g/a
Summary of the method: as §4

common ragweed [31] = test: as above; conditions: dose 3.2 g/a
Summary of the method: as §4

transplanted rice = test: Test Example 1: preemergence treatment under submerged conditions, effect on crop; conditions: dose 2.52 g/a
Summary of the method: as §3

posumbu knotweed [32] = test: Test Example 4: herbicidal effect in foliage treatment; conditions: dose 3.2 g/a, three weeks after application
Summary of the method: as §1

SMILES: O=C1CC(C(F)(F)F)OCN1Cc1ccccc1NS(=O)(=O)C(F)(F)F (stereo not shown) [II-14]
- A: barnyardgrass, herbicidal effect (barnyardgrass [1]): 5 (mortality of 90% or above (nearly complete death))
- K: redroot pigweed, herbicidal effect (redroot pigweed [2]): 0 (mortality of less than 5% (almost ineffective))
- N: common chickweed, herbicidal effect (common chickweed [3]): 3 (mortality of at least 40% and less than 70%)
- E: giant foxtail, herbicidal effect (giant foxtail [4]): 4 (mortality of at least 70% and less than 90%)
- D: large crabgrass, herbicidal effect (large crabgrass [5]): 4 (mortality of at least 70% and less than 90%)
- G: water foxtail, herbicidal effect (water foxtail [6]): 5 (mortality of 90% or above (nearly complete death))
- I: velvetleaf, herbicidal effect (velvetleaf [7]): 4 (mortality of at least 70% and less than 90%)
- O: beadstraw, herbicidal effect (beadstraw [8]): 3 (mortality of at least 40% and less than 70%)
- L: common lambsquater, herbicidal effect (common lambsquater [9]): 4 (mortality of at least 70% and less than 90%)
- F: wild oat, herbicidal effect (wild oat [10]): 0 (mortality of less than 5% (almost ineffective))
- H: Italian ryegrass, herbicidal effect (Italian ryegrass [11]): 3 (mortality of at least 40% and less than 70%)
- J: common ragweed, herbicidal effect (common ragweed [12]): 3 (mortality of at least 40% and less than 70%)
- A: barnyardgrass, herbicidal effect (evaluation scale 0-5) (barnyardgrass [13]): 5 (mortality of 90% or above (nearly complete death))
- B: bulrush, herbicidal effect (evaluation scale 0-5) (bulrush [14]): 5 (mortality of 90% or above (nearly complete death))
- C: ducksalad, herbicidal effect (evaluation scale 0-5) (ducksalad [15]): 5 (mortality of 90% or above (nearly complete death))
- A: barnyardgrass, herbicidal effect (evaluation scale 0-5) (barnyardgrass [16]): 5 (mortality of 90% or above (nearly complete death))
- B: bulrush, herbicidal effect (evaluation scale 0-5) (bulrush [17]): 5 (mortality of 90% or above (nearly complete death))
- C: ducksalad, herbicidal effect (evaluation scale 0-5) (ducksalad [18]): 5 (mortality of 90% or above (nearly complete death))
- A: barnyardgrass, herbicidal effect (evaluation scale 0-5) (barnyardgrass [19]): 5 (mortality of 90% or above (nearly complete death))
- K: redroot pigweed, herbicidal effect (evaluation scale 0-5) (redroot pigweed [20]): 4 (mortality of at least 70% and less than 90%)
- M: posumbu knotweed, herbicidal effect (evaluation scale 0-5) (posumbu knotweed [21]): 5 (mortality of 90% or above (nearly complete death))
- N: common chickweed, herbicidal effect (evaluation scale 0-5) (common chickweed [22]): 5 (mortality of 90% or above (nearly complete death))
- E: giant foxtail, herbicidal effect (evaluation scale 0-5) (giant foxtail [23]): 4 (mortality of at least 70% and less than 90%)
- D: large crabgrass, herbicidal effect (evaluation scale 0-5) (large crabgrass [24]): 5 (mortality of 90% or above (nearly complete death))
- G: water foxtail, herbicidal effect (evaluation scale 0-5) (water foxtail [25]): 5 (mortality of 90% or above (nearly complete death))
- I: velvetleaf, herbicidal effect (evaluation scale 0-5) (velvetleaf [26]): 5 (mortality of 90% or above (nearly complete death))
- O: beadstraw, herbicidal effect (evaluation scale 0-5) (beadstraw [27]): 5 (mortality of 90% or above (nearly complete death))
- L: common lambsquater, herbicidal effect (evaluation scale 0-5) (common lambsquater [28]): 4 (mortality of at least 70% and less than 90%)
- F: wild oat, herbicidal effect (evaluation scale 0-5) (wild oat [29]): 0 (mortality of less than 5% (almost ineffective))
- H: Italian ryegrass, herbicidal effect (evaluation scale 0-5) (Italian ryegrass [30]): 3 (mortality of at least 40% and less than 70%)
- J: common ragweed, herbicidal effect (evaluation scale 0-5) (common ragweed [31]): 4 (mortality of at least 70% and less than 90%)
- a: transplanted rice, effect on crop (evaluation scale 0-5) (transplanted rice): 0 (mortality of less than 5% (almost ineffective))

SMILES: CCOC(=O)N(c1ccccc1CN1COC(C(F)(F)F)CC1=O)S(=O)(=O)C(F)(F)F (stereo not shown) [II-15]
- A: barnyardgrass, herbicidal effect (barnyardgrass [1]): 4 (mortality of at least 70% and less than 90%)
- K: redroot pigweed, herbicidal effect (redroot pigweed [2]): 0 (mortality of less than 5% (almost ineffective))
- M: posumbu knotweed, herbicidal effect (posumbu knotweed [32]): 3 (mortality of at least 40% and less than 70%)
- N: common chickweed, herbicidal effect (common chickweed [3]): 4 (mortality of at least 70% and less than 90%)
- E: giant foxtail, herbicidal effect (giant foxtail [4]): 3 (mortality of at least 40% and less than 70%)
- D: large crabgrass, herbicidal effect (large crabgrass [5]): 4 (mortality of at least 70% and less than 90%)
- G: water foxtail, herbicidal effect (water foxtail [6]): 5 (mortality of 90% or above (nearly complete death))
- I: velvetleaf, herbicidal effect (velvetleaf [7]): 5 (mortality of 90% or above (nearly complete death))
- O: beadstraw, herbicidal effect (beadstraw [8]): 4 (mortality of at least 70% and less than 90%)
- L: common lambsquater, herbicidal effect (common lambsquater [9]): 4 (mortality of at least 70% and less than 90%)
- F: wild oat, herbicidal effect (wild oat [10]): 0 (mortality of less than 5% (almost ineffective))
- H: Italian ryegrass, herbicidal effect (Italian ryegrass [11]): 1 (mortality of at least 5% and less than 20%)
- J: common ragweed, herbicidal effect (common ragweed [12]): 3 (mortality of at least 40% and less than 70%)
- A: barnyardgrass, herbicidal effect (evaluation scale 0-5) (barnyardgrass [13]): 5 (mortality of 90% or above (nearly complete death))
- B: bulrush, herbicidal effect (evaluation scale 0-5) (bulrush [14]): 5 (mortality of 90% or above (nearly complete death))
- C: ducksalad, herbicidal effect (evaluation scale 0-5) (ducksalad [15]): 5 (mortality of 90% or above (nearly complete death))
- A: barnyardgrass, herbicidal effect (evaluation scale 0-5) (barnyardgrass [16]): 5 (mortality of 90% or above (nearly complete death))
- B: bulrush, herbicidal effect (evaluation scale 0-5) (bulrush [17]): 5 (mortality of 90% or above (nearly complete death))
- C: ducksalad, herbicidal effect (evaluation scale 0-5) (ducksalad [18]): 5 (mortality of 90% or above (nearly complete death))
- A: barnyardgrass, herbicidal effect (evaluation scale 0-5) (barnyardgrass [19]): 4 (mortality of at least 70% and less than 90%)
- K: redroot pigweed, herbicidal effect (evaluation scale 0-5) (redroot pigweed [20]): 4 (mortality of at least 70% and less than 90%)
- M: posumbu knotweed, herbicidal effect (evaluation scale 0-5) (posumbu knotweed [21]): 0 (mortality of less than 5% (almost ineffective))
- N: common chickweed, herbicidal effect (evaluation scale 0-5) (common chickweed [22]): 4 (mortality of at least 70% and less than 90%)
- E: giant foxtail, herbicidal effect (evaluation scale 0-5) (giant foxtail [23]): 0 (mortality of less than 5% (almost ineffective))
- D: large crabgrass, herbicidal effect (evaluation scale 0-5) (large crabgrass [24]): 5 (mortality of 90% or above (nearly complete death))
- G: water foxtail, herbicidal effect (evaluation scale 0-5) (water foxtail [25]): 5 (mortality of 90% or above (nearly complete death))
- O: beadstraw, herbicidal effect (evaluation scale 0-5) (beadstraw [27]): 0 (mortality of less than 5% (almost ineffective))
- L: common lambsquater, herbicidal effect (evaluation scale 0-5) (common lambsquater [28]): 4 (mortality of at least 70% and less than 90%)
- F: wild oat, herbicidal effect (evaluation scale 0-5) (wild oat [29]): 0 (mortality of less than 5% (almost ineffective))
- H: Italian ryegrass, herbicidal effect (evaluation scale 0-5) (Italian ryegrass [30]): 4 (mortality of at least 70% and less than 90%)
- J: common ragweed, herbicidal effect (evaluation scale 0-5) (common ragweed [31]): 4 (mortality of at least 70% and less than 90%)
- a: transplanted rice, effect on crop (evaluation scale 0-5) (transplanted rice): 0 (mortality of less than 5% (almost ineffective))
